# Measurements: US20190000850A1, “COMBINATION CANCER THERAPY” (The Regents of the University of California, priority 2015, published 2019)
# Tests used:
# [1] = cited from earlier work
# Jurkat cells [2] = assay: dGTP/DNA-G biosynthesis with [^13C6]glucose and [^15N5]dG labeling; type: cell-based
# Method: Another approach to study dGTP/DNA-G biosynthetic pathways is through anticancer therapy Forodesine (BCX-1777). The precursor for DNA-G, dGTP, can be produced from glucose via the de novo pathway and from salvage of extracellular dG either as nucleobase and/or intact nucleoside (FIG. 42A). […] Jurkat cells were labeled for 18 h in the following conditions: untreated, PNP inhibitor (BCX-1777) and DI-82, a specific dCK inhibitor. The labeled media contained […] [U-^13C6]glucose to represent the de novo contribution and 5 μM [^15N5]dG to represent salvage pathways. At the end of the incubation time, [^15N5]dG decreased nearly three orders of magnitude in the culture media from the untreated Jurkat cells, reflecting the high PNP activity in these leukemia cells (FIG. 42B). In contrast, the culture media from BCX-1777 treated cells contained 1.8 μM [^15N5]dG, indicative of reduced dG catabolism.
# (§1) Cells were transferred into RPMI-1640 without glucose and supplemented with 10% dialyzed FBS (Gibco) containing any of the following labeled substrates (Cambridge Isotopes): precursors for de novo [U-^13C6]glucose (Sigma-Aldrich) at 11 mM; precursors for purine salvage [U-^13C10,^15N5]dA (Cambridge Isotopes), [^15N5]dA (Cambridge Isotopes), [^15N5]dG (Cambridge Isotopes), [U-^13C5,^15N4]Hx (Cambridge Isotopes) at 5 μM or as indicated in the text; and precursors for pyrimidine salvage: [U-^13C9,^15N3]dC (Silantes) and [U-^13C10,^15N2]dT (Cambridge Isotopes) at 5 μM. The cells were incubated for 18 h or as indicated in the text before samples collection and processing.
# (§2) Culture medium was collected 20 μL at the indicated time points. Stock solutions (10 mM) of [U-^13C10,^15N5]dA, and [^15N3]dC (Cambridge Isotope Laboratories) were prepared individually in dimethyl sulfoxide (DMSO), and stored at −20° C. before use as internal standards. The internal standards were diluted to 20 nM in methanol to generate internal standard solution. Calibration standards were prepared by spiking working stock solutions of [U-^13C10,^15N5]dA and [U-^13C9,^15N3]dC blank media to give concentrations in the 10 nM-10 μM range. Each 20 μL calibration standard sample was mixed with 60 μL of internal standard solution, mixed (30 s) and centrifuged (15,000 g, 10 min, 4° C.) and 60 μL of supernatant were transferred into a clean mass spec vial for LC-MS/MS-MRM analysis. Media samples were processed similarly and in parallel to the calibration standard samples.
# Cells were collected into microcentrifuge tube and centrifuged (450×g, 4 min, 4° C.). The supernatant was carefully aspirated. The cells were washed twice by the addition of 1 mL of cold PBS and centrifugation (450×g, 4 min 4° C.). PBS washes were aspirated. […]
# Chk1 = target: T1, Chk1 (Homo sapiens, UniProt O14757); conditions: read-out: IC50 against primary target (Chk1); cited from earlier work
# T1 sequence (O14757 1-476): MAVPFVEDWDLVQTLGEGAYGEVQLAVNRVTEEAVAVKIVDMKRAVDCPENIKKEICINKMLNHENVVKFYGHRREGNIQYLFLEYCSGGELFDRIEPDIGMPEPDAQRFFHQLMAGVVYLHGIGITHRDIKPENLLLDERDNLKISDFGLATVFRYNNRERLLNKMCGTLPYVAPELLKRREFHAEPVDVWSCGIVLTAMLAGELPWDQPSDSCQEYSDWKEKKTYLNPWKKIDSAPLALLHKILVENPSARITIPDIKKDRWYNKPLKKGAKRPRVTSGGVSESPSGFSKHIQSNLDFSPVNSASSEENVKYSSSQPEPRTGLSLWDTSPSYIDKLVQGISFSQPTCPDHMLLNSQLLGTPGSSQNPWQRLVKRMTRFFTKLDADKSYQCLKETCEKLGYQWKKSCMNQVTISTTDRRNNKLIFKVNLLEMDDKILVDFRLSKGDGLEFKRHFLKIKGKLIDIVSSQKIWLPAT
# CEM cells = assay: Mass spectrometric assay of de novo (RNR) and salvage (dCK) contribution to dCTP and DNA-C; type: cell-based; conditions: G1 released CEM cells
# Method: To analyze the differential utilization of de novo and nucleotide biosynthetic salvage pathways, cultured cells were incubated with stable isotope labeled DNA precursors. […] Extracted dNTP and DNA were analyzed in a triple quadrupole mass spectrometer (QQQ) using multiple reaction monitoring (MRM). The first (Q1) and third (Q3) quadrupoles function as mass filters while the second (Q2) quadrupole serves as a collision chamber. […] In Q2, the glycosidic bond of the selected dC is cleaved, releasing a protonated nucleobase (NB) fragment and a neutral deoxyribose (dR) molecule. The m/z specific NB fragments from dC is separated in Q3 and detected to generate ion chromatograms. […] Each identifier corresponded to a specific biosynthetic pathway and is defined as [x;y], where “x” is the number of heavy isotope-labeled atoms in NB and “y” is the number of heavy isotope atoms in dR. […] According to current biochemical maps of nucleotide metabolism, the [7;5] identifier can only arise from salvaging [U-^13C9,^15N3]dC into newly synthesized DNA. In contrast, a dC with a [0,5] identifier is a product of the de novo pathway. The ratio of the peak areas in the ion chromatograms of salvage [7;5] and de novo [0;5] identifiers describes the relative contributions of the two biosynthetic routes to the dCTP pool used for DNA replication.
# Genomic DNA was extracted using the Quick-gDNA MiniPrep kit (Zymo Research, D3021) and hydrolyzed to nucleosides using the DNA Degradase Plus kit (Zymo Research, E2021) following manufacturer-supplied instructions. In the final step of DNA extraction, 50 μL of water was used to elute the DNA. A nuclease premix solution was prepared by mixing 10× buffer, DNA degradase Plus™ and water in the ratio of 2.5/1/1.5 (v/v/v). DNA hydrolysis reaction was prepared in mass spec vials by mixing 5 μL of the nuclease premix solution (5 U of enzyme) and 20 μL of eluted genomic DNA, the total volume becomes 25 μL. The samples were tapped and flicked downward prior to overnight before incubation at 37° C.
# Cells were collected into microcentrifuge tube and centrifuged (450×g, 4 min, 4° C.). The supernatant was carefully aspirated. The cells were washed twice by the addition of 1 mL of cold PBS and centrifugation (450×g, 4 min 4° C.). PBS washes were aspirated. Thereafter, cells were lysed in 40 μL of 70% methanol/water (v/v), vortexed (30 s) and incubated on ice for 10 min. Then 40 μL of chloroform (Fisher) was added, vortexed (30 s) and incubated on ice for another 10 min. The samples were then centrifuged at max speed for 10 min at 4° C. Finally, the supernatant was transferred (≈25 μL) into a mass spec vial.
# For genomic DNA and media analysis, an aliquot of DNA hydrolysis or media samples (20 μL) was injected directly onto a porous graphitic carbon column (Thermo Fisher Scientific Hypercarb, 100×2.1 mm, 5 μm particle size) equilibrated in solvent A (water/acetonitrile/formic acid, 95/5/0.2, v/v/v) and eluted (200 μL/min) with an increasing concentration of solvent B (acetonitrile/water/formic acid, 90/10/0.2, v/v/v): min/% B/flow rate (μL/min); 0/0/200, 5/0/200, 10/15/200, 20/15/200, 21/40/200, 25/50/200, 26/100/700, 30/100/700, 3I/O/700, 34/0/700, 35/0/200).
# CCRF-CEM T-ALL cells = assay: EdU pulse assay of cell cycle progression after release from G1 arrest; type: cell-based; conditions: synchronized CEM cells released from G1
# Method: Following release from G1, cells progress to early, mid and late S phase (defined as S1, S2 and S3, respectively) and G2/M. By 18 h following release in drug-free media, 42.5% of cells progressed to S3. […] Thus, dCK represents a resistance mechanism to ATR inhibition.
# Cells were treated with a CDK4/6 inhibitor, PD-0332991 (Selleckchem) for 18 h to arrest in G1 phase. Subsequently, cells were washed and released into fresh media containing 10% FBS to monitor the progression of synchronized cells throughout the cell cycle by flow cytometry analysis.
# For measuring cell cycle progression of synchronous population of cells, cells were first arrested in G1 phase, then washed and released in treated media. Before collecting and fixing cells at various time points, cells were pulse-labeled with 10 μM EdU for 1 h, and then click-labeled with azide-Alexa Fluor 647 (Invitrogen; Click-iT EdU Flow cytometry kit) according to manufacturer's protocol. Total DNA content was assessed by staining with FxCycle-Violet (Invitrogen) at 1 μg/mL final concentration in PBS containing 2% FBS.
# [3] = system: p185^BCR-ABLArf^−/− pre-B cells; assay: dCTP pool and DNA-C measurement with [U-^13C9,^15N3]dC and [U-^13C6]glucose; type: cell-based, mouse; conditions: 3, 6, 9 and 12 h treatment
# From the text: Therefore, p185^BCR-ABLArf^−/− pre-B cells were labeled with [U-^13C9,^15N3]dC and [U-^13C6]glucose to measure the contribution of salvage pathway via dCK and de novo pathway via RNR, respectively.
# [4] = Solubility study in phosphate buffer solution; type: physicochemical; conditions: aqueous buffer
# Jurkat cells [5] = assay: dATP/DNA-A biosynthesis with [^13C6]glucose and [^15N5]dA labeling; type: cell-based
# Method: The precursor for DNA-A, dATP, can be produced from glucose via the de novo pathway and from salvage of extracellular dA either as nucleobase and/or intact nucleoside (FIG. 41A). […] Pharmacological perturbations were used to investigate the contributions of each dA salvage pathway (FIG. 41A). Jurkat cells were labeled for 18 h in the following conditions: untreated, ADA inhibitor Pentostatin (dCF) and DI-82, a specific dCK inhibitor. The labeled media contained […] [U-^13C6]glucose to represent the de novo contribution and 5 μM [^15N5]dA to represent salvage pathways. At the end of the incubation time, [^15N5]dA was undetectable in the culture media from the untreated Jurkat cells, reflecting the high ADA activity in these leukemia cells (FIG. 41B). In contrast, the culture media from dCF treated cells contained 1.5 μM [^15N5]dA, indicative of reduced dA catabolism.
# as §1, §2
# Cells were collected into microcentrifuge tube and centrifuged (450×g, 4 min, 4° C.). The supernatant was carefully aspirated. The cells were washed twice by the addition of 1 mL of cold PBS and centrifugation (450×g, 4 min 4° C.). PBS washes were aspirated. Thereafter, cells were lysed in 40 μL of 70% methanol/water (v/v), vortexed (30 s) and incubated on ice for 10 min. […]
# leukemia cell growth = assay: IC50 (cytotoxicity assay) of RNR inhibitors, Table 1; type: cell-based
# Method: Cells were plated in a 384-well plate (1,000 cells/well for suspension cell lines and 500 cells/well for adherent cell lines in 30 μL). For suspension cell lines, the plate was incubated in 37° C. for 1 h to let the cells settle. For adherent cell lines, the plate was incubated overnight to allow the cells to seed. During incubation, drugs were diluted to desired concentration by serial dilution, vehicle condition was created by adding equivalent amount of DMSO. After incubation, 10 μL of diluted drugs were added to each well, and incubated for 72 h. After incubation, Cell TiterGlo reagent was added to each well according to manufacturer's instructions (Promega, CellTiter-Glo® Luminescent Cell Viability Assay). The plates were shaken for 2 min and incubated in dark for 8 min. Luminescence readings were obtained with luminometer (Molecular devices, SpectraMax).
# ATR = ATR (Homo sapiens, UniProt Q13535); conditions: read-out: IC50 against primary target (ATR); cited from earlier work
# ATM = ATM (Homo sapiens, UniProt Q13315); conditions: cited from earlier work
# Jurkat cells [6] = assay: Cell cycle histograms (DNA content), 24 h treatment; type: cell-based; conditions: dCF with 5 μM dA
# Method: Cells were plated at the density of 0.5 million cells per ml per well in respective media/treatment. After 24 h incubation, cells were harvested and washed with PBS twice before staining with 0.5 ml of propidium iodide (Calbiochem, 1 μg/ml) solution containing Ribonuclease A and 0.3% Triton-X 100. The samples were protected from light before acquisition by flow cytometry.
# Sequence of ATR (Q13535 whole entry): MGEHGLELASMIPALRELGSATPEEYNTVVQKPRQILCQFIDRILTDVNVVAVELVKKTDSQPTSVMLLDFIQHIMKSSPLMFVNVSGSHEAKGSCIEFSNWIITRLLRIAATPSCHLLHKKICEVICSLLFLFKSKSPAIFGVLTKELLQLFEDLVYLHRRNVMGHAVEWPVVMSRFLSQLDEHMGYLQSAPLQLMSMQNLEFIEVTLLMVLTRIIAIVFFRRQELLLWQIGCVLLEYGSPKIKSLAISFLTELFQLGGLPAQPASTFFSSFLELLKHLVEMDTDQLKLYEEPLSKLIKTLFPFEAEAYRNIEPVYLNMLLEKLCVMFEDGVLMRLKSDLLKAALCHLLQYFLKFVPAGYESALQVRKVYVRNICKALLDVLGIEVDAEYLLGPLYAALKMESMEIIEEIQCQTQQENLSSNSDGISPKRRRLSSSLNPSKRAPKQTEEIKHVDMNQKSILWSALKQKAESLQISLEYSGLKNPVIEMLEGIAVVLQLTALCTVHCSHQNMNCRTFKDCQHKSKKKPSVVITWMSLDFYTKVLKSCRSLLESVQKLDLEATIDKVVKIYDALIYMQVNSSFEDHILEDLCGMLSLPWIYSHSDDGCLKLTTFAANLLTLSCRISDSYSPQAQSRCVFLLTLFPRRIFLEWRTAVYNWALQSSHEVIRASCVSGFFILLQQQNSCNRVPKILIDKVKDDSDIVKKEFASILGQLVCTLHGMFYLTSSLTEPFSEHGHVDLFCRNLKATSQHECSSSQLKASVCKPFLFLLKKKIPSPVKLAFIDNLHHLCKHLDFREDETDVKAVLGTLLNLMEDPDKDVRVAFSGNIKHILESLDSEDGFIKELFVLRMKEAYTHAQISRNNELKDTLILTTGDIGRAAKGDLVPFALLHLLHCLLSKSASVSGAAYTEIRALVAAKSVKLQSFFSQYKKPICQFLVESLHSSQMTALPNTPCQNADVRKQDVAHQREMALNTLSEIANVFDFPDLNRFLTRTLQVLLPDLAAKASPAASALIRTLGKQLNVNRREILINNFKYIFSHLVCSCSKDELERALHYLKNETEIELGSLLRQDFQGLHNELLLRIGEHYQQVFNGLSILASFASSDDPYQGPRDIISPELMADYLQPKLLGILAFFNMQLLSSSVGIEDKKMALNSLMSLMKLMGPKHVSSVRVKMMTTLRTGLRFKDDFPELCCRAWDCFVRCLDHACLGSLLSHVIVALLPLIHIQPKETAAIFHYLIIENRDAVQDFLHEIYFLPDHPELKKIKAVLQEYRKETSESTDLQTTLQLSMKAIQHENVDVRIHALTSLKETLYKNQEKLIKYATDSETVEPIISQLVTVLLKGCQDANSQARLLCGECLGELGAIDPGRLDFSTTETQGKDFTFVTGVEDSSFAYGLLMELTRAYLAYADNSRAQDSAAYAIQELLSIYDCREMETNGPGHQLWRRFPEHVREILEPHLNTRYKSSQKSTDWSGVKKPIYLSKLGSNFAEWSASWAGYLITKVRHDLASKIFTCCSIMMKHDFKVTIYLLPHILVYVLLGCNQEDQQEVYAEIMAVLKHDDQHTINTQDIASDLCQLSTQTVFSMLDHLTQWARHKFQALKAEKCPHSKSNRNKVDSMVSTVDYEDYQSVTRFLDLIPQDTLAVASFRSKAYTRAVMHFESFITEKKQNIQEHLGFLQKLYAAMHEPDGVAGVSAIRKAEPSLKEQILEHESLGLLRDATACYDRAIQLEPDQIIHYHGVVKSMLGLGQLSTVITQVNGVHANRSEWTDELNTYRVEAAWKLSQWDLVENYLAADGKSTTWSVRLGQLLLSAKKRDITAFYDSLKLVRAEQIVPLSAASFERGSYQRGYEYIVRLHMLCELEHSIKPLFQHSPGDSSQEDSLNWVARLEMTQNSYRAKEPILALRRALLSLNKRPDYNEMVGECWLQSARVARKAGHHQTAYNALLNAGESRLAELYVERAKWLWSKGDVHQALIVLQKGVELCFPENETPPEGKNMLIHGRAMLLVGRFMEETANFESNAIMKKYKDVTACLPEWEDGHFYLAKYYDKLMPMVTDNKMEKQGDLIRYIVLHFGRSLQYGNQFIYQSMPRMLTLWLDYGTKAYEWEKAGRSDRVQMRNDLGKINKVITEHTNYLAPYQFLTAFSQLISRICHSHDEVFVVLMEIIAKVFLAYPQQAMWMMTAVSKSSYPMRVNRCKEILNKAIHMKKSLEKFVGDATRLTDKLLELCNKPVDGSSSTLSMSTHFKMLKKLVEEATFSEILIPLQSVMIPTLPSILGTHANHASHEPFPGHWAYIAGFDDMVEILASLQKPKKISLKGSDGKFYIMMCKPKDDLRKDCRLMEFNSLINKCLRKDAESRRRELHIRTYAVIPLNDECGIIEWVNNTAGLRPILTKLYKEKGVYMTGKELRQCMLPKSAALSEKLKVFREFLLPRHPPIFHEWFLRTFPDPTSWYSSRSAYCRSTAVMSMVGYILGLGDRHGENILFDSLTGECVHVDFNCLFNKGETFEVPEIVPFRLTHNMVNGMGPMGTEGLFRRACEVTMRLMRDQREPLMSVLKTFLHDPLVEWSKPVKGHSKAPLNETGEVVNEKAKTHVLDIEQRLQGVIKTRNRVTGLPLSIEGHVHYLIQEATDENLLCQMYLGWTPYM
# Sequence of ATR (Q8WXE1 whole entry partner): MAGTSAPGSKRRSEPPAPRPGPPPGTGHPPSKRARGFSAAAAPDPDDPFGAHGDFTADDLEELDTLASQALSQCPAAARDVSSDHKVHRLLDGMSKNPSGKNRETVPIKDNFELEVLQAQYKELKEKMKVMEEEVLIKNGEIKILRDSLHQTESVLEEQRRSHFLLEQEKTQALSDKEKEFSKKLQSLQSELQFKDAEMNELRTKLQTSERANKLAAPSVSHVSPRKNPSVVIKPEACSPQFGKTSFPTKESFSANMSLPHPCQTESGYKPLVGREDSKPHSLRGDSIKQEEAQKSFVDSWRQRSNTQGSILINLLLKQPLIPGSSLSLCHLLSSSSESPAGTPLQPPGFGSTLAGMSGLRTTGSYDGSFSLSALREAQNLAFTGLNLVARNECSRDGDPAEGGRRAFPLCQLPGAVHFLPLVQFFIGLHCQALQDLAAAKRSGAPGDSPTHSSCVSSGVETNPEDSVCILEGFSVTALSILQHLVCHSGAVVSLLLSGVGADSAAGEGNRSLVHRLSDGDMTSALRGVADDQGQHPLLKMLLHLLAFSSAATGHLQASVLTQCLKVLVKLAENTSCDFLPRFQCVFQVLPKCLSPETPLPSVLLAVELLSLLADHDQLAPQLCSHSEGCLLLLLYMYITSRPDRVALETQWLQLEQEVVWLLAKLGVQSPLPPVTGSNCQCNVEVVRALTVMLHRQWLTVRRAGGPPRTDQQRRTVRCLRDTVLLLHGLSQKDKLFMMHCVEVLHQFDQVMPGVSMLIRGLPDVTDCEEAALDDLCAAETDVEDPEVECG
smiles,measurement,setting,value
C[C@@H]1COCCN1c1cc(C2([S@](C)(=N)=O)CC2)nc(-c2cc[nH]c3nccc2-3)n1 [AZD6738],oral bioavailability,[1],bioavailable)
"O=c1[nH]cnc2c([C@@H]3N[C@H](CO)[C@@H](O)[C@H]3O)c[nH]c12 [BCX-1777, Forodesine]",[^15N5]dG in the culture media at the end of incubation,"Jurkat cells [2]; 18 h, 5 nM BCX-1777, 5 μM [^15N5]dG added",1.8 µM
same,increase in dG salvage into dGTP,"Jurkat cells [2]; 18 h, BCX-1777",over 300 fold
same,increase of dGTP pools compared to untreated cells,"Jurkat cells [2]; 18 h, PNP inhibition by BCX-1777",6 fold
COc1cc(Nc2cnc(C#N)c(O[C@H](C)CN(C)C)n2)ncc1-c1cnn(C)c1 [CCT244747],oral bioavailability,[1],bioavailable)
same,IC50,Chk1,0.029 to 0.17 µM
"COc1ccc(-c2nc(C(C)Sc3nc(N)cc(N)n3)c(C)s2)cc1OCCNS(C)(=O)=O (centres unmarked) [DI-82, N-(2-(5-(4-(1-((4,6-diaminopyrimidin-2-yl)thio)ethyl)-5-methylthiazol-2-yl)-2-methoxyphenoxy)ethyl)methanesulfonamide]",contribution of dCK to dCTP and DNA-C,CEM cells,completely abrogates
same,effect on cell cycle progression,CCRF-CEM T-ALL cells,does not significantly impair cell cycle progression
same,dCTP pool,[3],nearly depleted
same,effect on the increased dGTP pool level caused by BCX-1777,Jurkat cells [2]; 1 μM DI-82 added to BCX-1777,completely reversed
same,solubility,[4],< 300 µg/mL
same,effect on the increased dATP pool level caused by dCF,Jurkat cells [5]; 1 μM DI-82 added to dCF,completely reversed
CCN1CCC(Oc2c(C#N)ncc3[nH]c4ncccc4c23)CC1 [GDC0425],oral bioavailability,[1],orally bioavailable
N[C@@H]1CCCN(c2c(Br)cnc3[nH]cc(NC(=O)C4CC4)c23)C1 [GDC0575],oral bioavailability,[1],orally bioavailable
N#Cc1cc2c(cn1)[nH]c1ncc(-c3ccc(CN4CCCCC4)cc3)cc12 [GNE-900],IC50,Chk1,0.001 µM
Cc1occc(=O)c1[O-].Cc1occc(=O)c1[O-].Cc1occc(=O)c1[O-].[Ga+3] [Gallium Maltolate],IC50,leukemia cell growth; 3-AP: cell type independent,30 µM
NC(=O)NO [Hydroxyurea],IC50,leukemia cell growth; 3-AP: cell type independent,39 µM
Cn1c(=O)n(-c2ccc(C(C)(C)C#N)cc2)c2c3cc(-c4cnc5ccccc5c4)ccc3ncc21 [NVP-BEZ235],IC50,ATR,0.021 µM
Cc1cn([C@H]2C[C@H](O)[C@@H](CO)O2)c(=O)[nH]c1=O [Thymidine],IC50,"leukemia cell growth; cell type dependent, range printed with two units (μM to mM)",50 to 5000 µM
CS(=O)(=O)c1ccc(-c2cnc(N)c(C(=O)Nc3ccccc3)n2)cc1 [VE-821],IC50,ATR,0.019 µM
same,IC50,ATM,34 µM
"OC[C@H]1O[C@@H](n2cnc3c2NC=NC[C@H]3O)C[C@@H]1O [dCF, Pentostatin]",reduction of the proportion of cells in G2/M,Jurkat cells [6],more than 2 fold
same,reduction of the proportion of cells in S-phase,Jurkat cells [6],3 fold
same,[^15N5]dA in the culture media at the end of incubation,"Jurkat cells [5]; 18 h, 10 μM dCF, 5 μM [^15N5]dA added",1.5 µM
same,increase of dATP pools compared to untreated cells,"Jurkat cells [5]; 18 h, ADA inhibition by dCF",6 fold
same,increase in dA salvage into dATP,"Jurkat cells [5]; 18 h, dCF",over 190 fold
